Assay results reported in ChEMBL document CHEMBL1201862, “PubChem BioAssay data set” (2004).
Activity calls are given as the source filed them.

Assays:
[1] = P. falciparum 3D7-ScDHODH growth inhibitors, dose response, SYBR Green, dry powder samples (AID 1159570); assay type: functional, cell-based;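 note: parasite growth measured after 72 hours of compound exposure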
[2] = HepG2 cell cytotoxicity, dose response, cytotoxicity control, plate reader, dry powder samples (AID 1159569); assay type: functional, cell-based;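 note: inhibitor potency with signal falling toward the positive control level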
[3] = P. falciparum Dd2 growth inhibitors, dose response, SYBR Green, cherry-picked samples (AID 1159567); assay type: functional, cell-based
[4] = P. falciparum Dd2 growth inhibitors, dose response, SYBR Green, dry powder samples (AID 1159566); assay type: functional, cell-based;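 note: potency for growth inhibition with lower SYBR green DNA signal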
[5] = P. falciparum ATP4 D1247Y mutant growth inhibitors, dose response, NITD609-resistant line, SYBR Green, dry powder (AID 1159571); assay type: functional, cell-based;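 note: parasites synchronized at ring stage by sorbitol before testing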
[6] = target: Peroxisome proliferator-activated receptor gamma/Nuclear receptor coactivator 2 (Homo sapiens, UniProt P37231); assay type: functional;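 note: agonist potency for raising coactivator recruitment to the receptor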
Sequence of Peroxisome proliferator-activated receptor gamma/Nuclear receptor coactivator 2 (P37231 whole entry): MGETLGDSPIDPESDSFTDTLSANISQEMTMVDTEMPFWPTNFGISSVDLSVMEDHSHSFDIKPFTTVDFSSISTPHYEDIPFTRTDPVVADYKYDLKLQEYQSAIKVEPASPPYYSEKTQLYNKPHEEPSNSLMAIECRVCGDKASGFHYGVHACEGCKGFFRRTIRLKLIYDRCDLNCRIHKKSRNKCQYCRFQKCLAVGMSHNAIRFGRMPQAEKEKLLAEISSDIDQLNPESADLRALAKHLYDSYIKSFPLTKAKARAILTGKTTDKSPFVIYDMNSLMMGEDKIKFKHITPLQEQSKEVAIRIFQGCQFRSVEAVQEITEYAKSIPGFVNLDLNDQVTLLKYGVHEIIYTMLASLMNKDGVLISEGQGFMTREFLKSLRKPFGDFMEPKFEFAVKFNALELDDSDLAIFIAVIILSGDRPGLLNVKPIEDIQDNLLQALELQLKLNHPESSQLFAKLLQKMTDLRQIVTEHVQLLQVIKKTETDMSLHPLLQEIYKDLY
Sequence of Peroxisome proliferator-activated receptor gamma/Nuclear receptor coactivator 2 (Q15596 whole entry, further chain): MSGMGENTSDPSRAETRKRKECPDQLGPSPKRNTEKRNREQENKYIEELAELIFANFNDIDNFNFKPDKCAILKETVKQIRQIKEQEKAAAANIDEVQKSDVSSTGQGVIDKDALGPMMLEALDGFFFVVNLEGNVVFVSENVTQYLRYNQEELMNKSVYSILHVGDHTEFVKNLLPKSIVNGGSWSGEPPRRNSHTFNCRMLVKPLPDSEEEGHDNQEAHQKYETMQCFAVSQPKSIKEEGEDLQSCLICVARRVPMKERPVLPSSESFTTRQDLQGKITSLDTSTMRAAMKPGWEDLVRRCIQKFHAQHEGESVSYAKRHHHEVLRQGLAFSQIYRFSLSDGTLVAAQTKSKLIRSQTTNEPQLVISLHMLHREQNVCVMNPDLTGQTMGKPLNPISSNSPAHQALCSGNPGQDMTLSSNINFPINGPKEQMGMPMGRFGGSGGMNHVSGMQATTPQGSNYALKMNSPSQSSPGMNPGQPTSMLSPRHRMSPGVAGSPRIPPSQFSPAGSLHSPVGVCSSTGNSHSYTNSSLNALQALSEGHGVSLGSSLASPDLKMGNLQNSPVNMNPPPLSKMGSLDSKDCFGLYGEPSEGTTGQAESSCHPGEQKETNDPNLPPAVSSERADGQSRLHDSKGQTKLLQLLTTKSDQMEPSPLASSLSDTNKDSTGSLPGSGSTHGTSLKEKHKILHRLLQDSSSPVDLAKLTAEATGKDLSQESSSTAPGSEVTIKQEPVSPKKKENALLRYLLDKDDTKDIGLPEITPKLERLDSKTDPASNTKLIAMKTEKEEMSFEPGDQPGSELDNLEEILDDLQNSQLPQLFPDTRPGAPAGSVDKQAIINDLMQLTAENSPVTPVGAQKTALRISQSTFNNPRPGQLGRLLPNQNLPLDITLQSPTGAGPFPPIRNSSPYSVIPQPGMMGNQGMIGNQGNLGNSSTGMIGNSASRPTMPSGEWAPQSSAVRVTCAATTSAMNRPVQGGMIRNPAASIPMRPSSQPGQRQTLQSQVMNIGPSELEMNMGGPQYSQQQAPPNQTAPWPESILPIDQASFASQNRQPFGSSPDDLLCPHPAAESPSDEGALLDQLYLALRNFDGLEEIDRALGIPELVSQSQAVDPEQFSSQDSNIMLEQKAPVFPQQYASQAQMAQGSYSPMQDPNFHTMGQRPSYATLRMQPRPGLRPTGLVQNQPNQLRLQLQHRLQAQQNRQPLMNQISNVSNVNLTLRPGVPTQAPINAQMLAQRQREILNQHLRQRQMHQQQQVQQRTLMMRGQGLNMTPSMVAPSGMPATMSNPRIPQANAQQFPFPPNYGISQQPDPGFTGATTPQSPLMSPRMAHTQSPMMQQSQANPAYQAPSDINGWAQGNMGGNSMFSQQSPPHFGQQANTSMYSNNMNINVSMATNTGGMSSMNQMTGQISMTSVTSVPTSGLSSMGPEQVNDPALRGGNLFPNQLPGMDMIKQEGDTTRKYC

[7] = target: Peroxisome proliferator-activated receptor gamma/Nuclear receptor coactivator 1 (Homo sapiens, UniProt P37231); assay type: functional;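 note: agonist potency as compounds enhance coactivator SRC-1 recruitment to PPARgamma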
[8] = target: Peroxisome proliferator-activated receptor gamma/Nuclear receptor coactivator 3 (Homo sapiens, UniProt P37231); assay type: functional;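 note: agonist potency for raising coactivator recruitment to the receptor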
Sequence of Peroxisome proliferator-activated receptor gamma/Nuclear receptor coactivator 3 (P37231 whole entry): as the sequence (P37231 whole entry) above
Sequence of Peroxisome proliferator-activated receptor gamma/Nuclear receptor coactivator 3 (Q9Y6Q9 whole entry, further chain): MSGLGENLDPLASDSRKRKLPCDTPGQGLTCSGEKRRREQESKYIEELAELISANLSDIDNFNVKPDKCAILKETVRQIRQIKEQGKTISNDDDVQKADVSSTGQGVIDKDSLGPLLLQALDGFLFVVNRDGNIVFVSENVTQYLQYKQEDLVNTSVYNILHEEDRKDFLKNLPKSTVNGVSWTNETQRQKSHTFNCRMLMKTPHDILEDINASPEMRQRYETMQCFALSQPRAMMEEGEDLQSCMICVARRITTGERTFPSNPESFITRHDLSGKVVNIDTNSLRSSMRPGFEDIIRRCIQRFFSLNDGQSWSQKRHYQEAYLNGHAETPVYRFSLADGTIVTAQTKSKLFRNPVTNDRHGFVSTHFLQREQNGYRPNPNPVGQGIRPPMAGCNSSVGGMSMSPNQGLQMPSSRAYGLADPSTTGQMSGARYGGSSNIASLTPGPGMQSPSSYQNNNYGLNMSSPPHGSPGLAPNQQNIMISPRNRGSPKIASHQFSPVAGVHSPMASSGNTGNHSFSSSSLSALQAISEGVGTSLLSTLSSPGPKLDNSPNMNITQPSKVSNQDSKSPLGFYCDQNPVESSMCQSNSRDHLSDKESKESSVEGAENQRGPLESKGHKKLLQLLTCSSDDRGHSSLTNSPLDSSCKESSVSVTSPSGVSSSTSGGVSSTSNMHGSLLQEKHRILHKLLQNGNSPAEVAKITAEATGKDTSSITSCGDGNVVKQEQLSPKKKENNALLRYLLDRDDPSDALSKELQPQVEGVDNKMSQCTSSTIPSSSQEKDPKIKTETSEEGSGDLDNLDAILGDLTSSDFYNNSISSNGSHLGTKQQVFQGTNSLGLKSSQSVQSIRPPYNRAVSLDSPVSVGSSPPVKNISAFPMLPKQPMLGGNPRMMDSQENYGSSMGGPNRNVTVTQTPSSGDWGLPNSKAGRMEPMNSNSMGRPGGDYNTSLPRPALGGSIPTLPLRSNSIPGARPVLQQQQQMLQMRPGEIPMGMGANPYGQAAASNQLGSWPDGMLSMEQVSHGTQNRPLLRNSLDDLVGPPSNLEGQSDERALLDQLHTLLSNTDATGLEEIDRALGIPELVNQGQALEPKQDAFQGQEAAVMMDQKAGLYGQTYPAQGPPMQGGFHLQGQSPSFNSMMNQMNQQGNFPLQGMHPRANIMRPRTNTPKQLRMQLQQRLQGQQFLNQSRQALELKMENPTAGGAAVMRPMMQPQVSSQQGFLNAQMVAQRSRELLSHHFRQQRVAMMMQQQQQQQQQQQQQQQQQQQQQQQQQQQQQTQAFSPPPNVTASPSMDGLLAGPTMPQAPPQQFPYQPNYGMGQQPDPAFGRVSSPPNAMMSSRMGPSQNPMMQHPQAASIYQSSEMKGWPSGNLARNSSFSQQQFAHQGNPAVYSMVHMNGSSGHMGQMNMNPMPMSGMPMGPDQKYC

Estrogen receptor beta = Estrogen receptor beta (Homo sapiens, UniProt Q92731);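 note: recombinant ER-beta bound to coactivator SRC1 peptide in presence of estradiol agonist; inhibitors block coactivator peptide binding and lower the FRET signal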
Sequence of Estrogen receptor beta (Q92731 whole entry): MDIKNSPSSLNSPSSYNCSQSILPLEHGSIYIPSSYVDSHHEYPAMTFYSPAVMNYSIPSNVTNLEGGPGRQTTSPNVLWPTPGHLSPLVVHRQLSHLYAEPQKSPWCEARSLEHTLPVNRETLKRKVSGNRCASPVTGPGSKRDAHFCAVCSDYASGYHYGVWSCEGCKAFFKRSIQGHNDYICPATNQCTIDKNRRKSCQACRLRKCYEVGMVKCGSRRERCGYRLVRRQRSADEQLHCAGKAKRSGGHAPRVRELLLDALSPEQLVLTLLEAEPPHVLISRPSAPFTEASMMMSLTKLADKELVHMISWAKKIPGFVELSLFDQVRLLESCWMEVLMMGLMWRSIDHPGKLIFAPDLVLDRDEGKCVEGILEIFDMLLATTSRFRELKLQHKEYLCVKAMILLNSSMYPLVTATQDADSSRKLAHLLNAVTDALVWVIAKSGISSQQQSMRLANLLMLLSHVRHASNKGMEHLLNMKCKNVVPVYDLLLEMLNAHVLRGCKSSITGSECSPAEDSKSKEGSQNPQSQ

[9] = target: Luciferin 4-monooxygenase (Photinus pyralis, UniProt P08659); assay: Counter Screen for Luciferase-based Assay Positives. [Related pubchem assays: 620, 618, 411 ]
HT-1080 = assay: cytotoxicity in HT1080 fibrosarcoma cells, cell-based, fluorescence readout (AID 620); assay type: functional; conditions: Homo sapiens
[10] = Luminescence Cell-Based Dose Retest to Confirm Inhibitors of Cancer Stem Cells. [Related pubchem assays (depositor defined):AID2717, AID2721]; assay type: functional; conditions: Homo sapiens
[11] = inhibitors of firefly luciferase expression or activity, dose response, H4 neuroglioma cells, luminescence (AID 1990); assay type: functional, cell-based
[12] = Luminescence Cell-Based Dose Response HTS to Identify Inhibitors of 5'UTR Stem-Loop Driven Prion Protein mRNA Translation in H4 Neuroglioblastoma Cells. [Related pubchem assays: 1827 (Project Summary), 1813 (Primary HTS)]; assay type: functional
[13] = inhibitors of SNCA 5'UTR-driven reporter translation, confirmation, H4 neuroglioma cells, luminescence (AID 1988); assay type: functional, cell-based
[14] = Luminescence-based counterscreen assay for KLF5 inhibitors: dose response cell-based high throughput screening assay to identify cytotoxic compounds using the IEC-6 intestinal epithelial cell line. [Related pubchem assays: 1700 (Primary screen.), 1834 (Confirmation screen.), 1858 (Summary AID.), 1905 (Counterscreen.)]; assay type: functional
[15] = A549 cell cytotoxicity, dose response, cytotoxicity control, plate reader, cherry-pick, antagonist series (AID 743412); assay type: functional, cell-based
[16] = HepG2 cell cytotoxicity, dose response, cytotoxicity control, plate reader, cherry-pick, antagonist series (AID 743416); assay type: functional, cell-based
[17] = LGR2 antagonists, dose response, cell-based, HEK293, CRE-luciferase reporter, cherry pick, set 2 (AID 743343); assay type: functional;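 note: transfected cells were stimulated with diluted bursicon conditioned medium after compound addition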
[18] = MC4R antagonists, dose response, counter-screen for LGR2 antagonist project, cell-based, plate reader, cherry pick (AID 743444); assay type: functional;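 note: transfected HEK 293 cells stimulated with alpha-MSH peptide; potency of inhibitors of the alpha-MSH evoked signal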
[19] = target: T1, Mannose-6-phosphate isomerase (Homo sapiens, UniProt P34949); assay: inhibitors of human PMI, primary screen, biochemical, fluorescence intensity, coupled assay (AID 1209)
T1 sequence (P34949 whole entry): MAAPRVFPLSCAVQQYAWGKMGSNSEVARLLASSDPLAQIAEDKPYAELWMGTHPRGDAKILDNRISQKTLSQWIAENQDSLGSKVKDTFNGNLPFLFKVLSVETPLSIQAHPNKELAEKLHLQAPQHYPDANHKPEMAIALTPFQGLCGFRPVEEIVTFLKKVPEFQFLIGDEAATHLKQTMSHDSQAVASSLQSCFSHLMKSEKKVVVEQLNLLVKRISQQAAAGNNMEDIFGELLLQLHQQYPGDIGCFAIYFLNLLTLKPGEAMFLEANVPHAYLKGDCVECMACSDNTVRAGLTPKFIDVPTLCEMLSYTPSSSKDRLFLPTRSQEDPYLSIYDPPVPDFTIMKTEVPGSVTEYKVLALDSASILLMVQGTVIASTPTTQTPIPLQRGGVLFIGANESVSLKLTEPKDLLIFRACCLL

[20] = target: T1, Mannose-6-phosphate isomerase; assay: human PMI inhibitors, high substrate, primary screen, biochemical, fluorescence intensity, high mannose 6-phosphate (AID 1220)
[21] = Luminescence Cell-Based Dose Response to Identify Activators of 5'UTR Stem-Loop Driven Prion Protein mRNA Translation in H4-C Neuroglioblastoma Cells. [Related pubchem assays: 1829 (Project Summary), 1814 (Primary HTS)]; assay type: functional
[22] = Luminescence Cell-Based Dose Confirmation HTS to Identify Activators of 5'UTR Stem-Loop Driven Alpha-Synuclein mRNA Translation in H4 Neuroglioblastoma Cells. [Related pubchem assays: 1829 (Project Summary), 1814 (Primary HTS)]; assay type: functional
[23] = Luminescence Cell-Based Dose Response HTS to Identify Activators of Luciferase Translation or Activity in H4 […] Cells. [Related pubchem assays: 1829 (Project Summary), 1814 (Primary HTS)]; assay type: functional
H4 = assay: Luminescence Cell-Based Dose Response HTS to Identify Activators of 5'UTR Stem-Loop Driven Prion Protein mRNA Translation in H4 Neuroglioblastoma Cells. [Related pubchem assays: 1829 (Project Summary), 1814 (Primary HTS)]; assay type: functional; conditions: Homo sapiens
[24] = Luminescence Cell-Based Dose Response to Identify Activators of Luciferase Translation or Activity in H4-C Neuroglioblastoma Cells. [Related pubchem assays: 1829 (Project Summary), 1814 (Primary HTS)]; assay type: functional
[25] = target: T2, Calpain-2 catalytic subunit (Sus scrofa, UniProt P43367); assay: pig calpain II inhibitor potency, dose response, biochemical, fluorogenic peptide substrate (AID 1420); assay type: functional
T2 sequence (P43367 whole entry): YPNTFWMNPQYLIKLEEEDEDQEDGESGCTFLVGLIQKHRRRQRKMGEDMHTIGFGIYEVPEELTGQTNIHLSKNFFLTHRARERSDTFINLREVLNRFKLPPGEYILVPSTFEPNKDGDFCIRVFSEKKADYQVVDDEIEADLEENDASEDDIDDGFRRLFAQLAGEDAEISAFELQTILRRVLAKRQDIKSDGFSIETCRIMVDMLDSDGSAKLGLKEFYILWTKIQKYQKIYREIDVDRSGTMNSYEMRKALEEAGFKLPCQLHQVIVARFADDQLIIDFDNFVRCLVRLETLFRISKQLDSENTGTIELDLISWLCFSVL

[26] = Luminescence Cell-Based Dose Confirmation to Identify Activators of 5'UTR Stem-Loop Driven Alpha-Synuclein mRNA Translation in H4 Neuroglioblastoma Cells. [Related pubchem assays: 1829 (Project Summary), 1814 (Primary HTS)]; assay type: functional
INS1 = assay: beta cell apoptosis inhibitors, cytokine rescue, dose response, luminescence, retest (AID 449756); assay type: functional, cell-based; conditions: Rattus norvegicus;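 note: cell death triggered by IL-1 beta plus TNF-alpha plus IFN-gamma mixture; protective hits raise ATP signal compared with cytokine alone wells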
Beta-galactosidase = Beta-galactosidase (Escherichia coli, UniProt Q8VNN2); assay: beta-galactosidase enzyme inhibitors and activators, dose response, artefact control for CCR6 antagonist project, biochemical, E. coli enzyme, set 3 (AID 504712); assay type: functional
Nonstructural protein 1 = Nonstructural protein 1 (Influenza A virus, UniProt Q194T2); assay type: functional, Influenza A virus (A/California/07/2009(H1N1))
[27] = luciferase reporter signal reduction – luminescence, H4-C neuroglioblastoma cells, dose response (AID 2458); assay type: functional, cell-based;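 note: H4 neuroglioblastoma cells stably carrying a luciferase reporter gene fusion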
cells = assay type: functional, cell-based
[28] = inhibitors of SNCA 5'UTR-driven translation, confirmation, luminescence, H4 neuroglioblastoma cells, dose confirmation (AID 2454); assay type: functional, cell-based;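 note: H4 neuroglioblastoma cells carrying an alpha-synuclein 5'UTR luciferase reporter; potency for inhibition of the luciferase signal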
[29] = HepG2 cell cytotoxicity, dose response, cytotoxicity control, cherry-picked samples (AID 1159577); assay type: functional, cell-based
[30] = target: FAD-linked sulfhydryl oxidase ALR (Homo sapiens, UniProt P55789); assay: inhibitors of human ALR sulfhydryl oxidase, dose response, biochemical, H2O2 detection, luminescence, cherry-pick (AID 493248)
Sequence of FAD-linked sulfhydryl oxidase ALR (P55789 whole entry): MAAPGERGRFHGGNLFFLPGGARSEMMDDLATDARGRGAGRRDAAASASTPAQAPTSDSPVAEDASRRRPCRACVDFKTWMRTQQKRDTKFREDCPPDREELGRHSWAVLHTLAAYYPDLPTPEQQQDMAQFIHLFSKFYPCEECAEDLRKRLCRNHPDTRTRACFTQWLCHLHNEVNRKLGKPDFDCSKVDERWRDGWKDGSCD

[31] = target: Eukaryotic translation initiation factor 4H (Homo sapiens, UniProt Q15056); assay: human eIF4H binding inhibitors, primary screen, translation initiation inhibitor project, biochemical, uHTS, fluorescence polarization (AID 2012)
[32] = target: Polyadenylate-binding protein 1 (Homo sapiens, UniProt P11940); assay: PABP poly(A) RNA binding inhibitors, primary screen, biochemical, fluorescence polarization, uHTS (AID 2014)

C[C@H]1CN([C@@H](C)CO)C(=O)c2c(c3ccccc3n2C)-c2ccccc2CO[C@@H]1CN(C)Cc1ccc(Cl)c(Cl)c1
AC50 [1]: 3.11 µM (active)
AC50 [2]: 18.4 µM (active)
AC50 [3]: 1.94 µM (active)
AC50 [4]: 1.43 µM (active)
AC50 [5]: 1.87 µM (active)

COc1ccc(CN2C[C@H](C)[C@@H](OC)CN(C)C(=O)c3ccc(NC(=O)c4nc5ccccc5s4)cc3OC[C@@H]2C)cc1
AC50 [1]: 5.03 µM (active)
AC50 [2]: 67.3 µM (active)
AC50 [3]: 2.9 µM (active)
AC50 [4]: 2.64 µM (active)
AC50 [5]: 3.82 µM (active)

CCOc1ccc(CCNC(=O)CSc2nn(-c3ccc(C)c(Cl)c3)c(=S)s2)cc1OCC
EC50 [6]: 51.9 µM (not active)
EC50 [7]: > 79.4 µM (not active)
EC50 [8]: > 79.4 µM (not active)

CSc1nc(O)c2c(n1)N=C1CCCC(O)=C1C2c1cccs1 (centres undefined)
IC50 (Estrogen receptor beta): 11.4 µM (active)

O=C(CSc1nnnn1Cc1ccccc1)NCC(=O)c1ccccc1
EC50 [6]: 45.9 µM (not active)
EC50 [7]: > 79.4 µM (not active)
EC50 [8]: 84.7 µM (not active)

CCCCCCOc1ccc(CN2CCN(CCO)CC2)cc1
EC50 [9]: 1.74 µM (active)
EC50 (HT-1080): > 50 µM (not active)
AC50 [10]: < 0.16 µM (active)

COC(=O)c1c(N)sc(C(=O)NCCc2ccccc2)c1C
EC50 [11]: 3.07 µM (active)
EC50 [12]: 0.394 µM (active)
EC50 [13]: 0.213 µM (active)
IC50 [14]: > 39.8 µM (not active)
AC50 [15]: > 52 µM (inactive)
AC50 [16]: > 52 µM (inactive)
AC50 [17]: 1.44 µM (active)
AC50 [18]: 1.94 µM (active)

CCCn1c(NC(=O)c2ccc(Br)cc2)nc2ccccc21
EC50 [6]: 9.79 µM (active)
EC50 [7]: 8.96 µM (active)
EC50 [8]: 13.6 µM (not active)

COc1cc(NC(C)=O)c2ncccc2c1[N+](=O)[O-]
IC50 [19]: > 50 µM (not active)
IC50 [20]: > 50 µM (not active)

Cc1ccc(NC2=C/C(=N/S(=O)(=O)c3cccs3)c3ccccc3C2=O)cc1C
EC50 [21]: 0.348 µM (active)
EC50 [22]: 0.181 µM (active)
EC50 [23]: < 0.1 µM (active)
EC50 (H4): < 0.1 µM (active)
EC50 [24]: 0.43 µM (active)
IC50 [25]: 22.3 µM (not active)
EC50 [26]: 0.318 µM (active)
AC50 (INS1): 1.56 µM (active)

O=[N+]([O-])c1ccc(O)c(/C=N/Nc2nn[nH]n2)c1
IC50 (Beta-galactosidase): > 66.6 µM (inactive)
IC50 (Nonstructural protein 1): 1.66 µM (active)

Nc1c(-c2cccc(Cl)c2)cnc2c(-c3ccccc3)cnn12
EC50 [21]: 0.478 µM (active)
EC50 [23]: < 0.1 µM (inconclusive)
EC50 (H4): 0.785 µM (active)
EC50 [24]: 1.15 µM (active)
EC50 [26]: 0.321 µM (active)

Cc1ccc2nc(NC(=O)CCCc3nc4ccccc4s3)sc2c1
EC50 [11]: 0.499 µM (active)
EC50 [27]: 1.6 µM (active)
EC50 (cells): > 12 µM (not active)
EC50 [13]: < 0.1 µM (active)
IC50 [14]: > 39.8 µM (not active)
EC50 [28]: 1.54 µM (active)

c1ccc(CN2C[C@@H]3N[C@H](C2)[C@@H]3c2ccc(-c3ccncc3)cc2)cc1
AC50 [1]: 3.96 µM (active)
AC50 [2]: 18 µM (active)
AC50 [3]: 2.35 µM (active)
AC50 [4]: 1.54 µM (active)
AC50 [29]: > 39 µM (inactive)
AC50 [5]: 1.66 µM (active)

CN(C)c1ccc(/C=C/c2nnnn2-c2ccccc2)cc1
EC50 [21]: 0.463 µM (active)
EC50 [23]: < 0.1 µM (inconclusive)
EC50 (H4): < 0.1 µM (active)
EC50 [24]: 0.323 µM (active)
EC50 [26]: 0.365 µM (active)
AC50 [30]: 0.894 µM (active)

CC(C)(C#CCCCCC#CC(C)(C)[N+](C)(C)C)[N+](C)(C)C
IC50 [31]: > 100 µM (inactive)
IC50 [32]: 7.97 µM (active)

O=C(O)CC(Cn1nnnc1S)c1ccccc1 (centres undefined)
IC50 (Estrogen receptor beta): > 50 µM (not active)
